# Results taken from paper PMC7098370 (Toxicological Sciences, 2020).
# Marks after values point to notes of the source that are not given here.
# Legend:
# [1] = tested on: children with sickle cell anemia; conditions: 1.4–1.8 mg Co/kg/day, ref Gross et al., 1955, Kriss et al.; cited from earlier work
# [2] = Bioelution in simulated intestinal fluid; conditions: simulated intestinal fluid pH 7.4, 2 h
# female mice = conditions: 15-day exposure, ref Finley et al. (2012), Shrivastava et al., 1996; cited from earlier work
# [3] = Target organ study: tissue distribution of cobalt after 90-day oral exposure; type: in vivo, rat; conditions: 90-day exposure to 7.44 mg Co/kg bw/day
# [4] = Bioelution in simulated gastric fluid
# Crl:CD(SD) rats = assay: Subchronic 90-day oral RDT study with reproductive toxicity screening; type: in vivo, rat; conditions: for erythroid hyperplasia in the bone marrow, incidence: 90 days
# [5] = cobalt dichloride hexahydrate vs tricobalt tetraoxide
# [6] = females, 0.74 mg Co/kg bw/day, end of 90-day oral exposure, experimental group
# [7] = females, 2.48 mg Co/kg bw/day, end of 90-day oral exposure, experimental group
# [8] = females, 7.44 mg Co/kg bw/day, end of 90-day oral exposure, experimental group
# [9] = females, 7.44 mg Co/kg bw/day, recovery group, end of 28-day recovery period
# [10] = females, 7.44 mg Co/kg bw/day, recovery group, end of 90-day oral exposure
# [11] = males, 0.74 mg Co/kg bw/day, end of 90-day oral exposure, experimental group
# [12] = males, 2.48 mg Co/kg bw/day, end of 90-day oral exposure, experimental group
smiles,measurement,setting,value
"O.O.O.O.O.O.[Cl-].[Cl-].[Co+2] [CoCl2, Cobalt dichloride hexahydrate]",thyroid effects,[1],decrease in iodine uptake and the development of goiters
same,Bioelution of Co in intestinal fluid (% release),[2],79 (2 h) % release
same,Bioelution of Co in intestinal fluid / cobalt release (µg Co/g sample),[2]; listed as Co Dichloride Hexahydrate,198 700 (2 h) µg Co/g sample
same,dose at which histopathological changes in the thyroid were reported,female mice,approximately 50 mg Co/kg bw/day
same,"elevation of tissue Co concentration vs control, most tissues and organs",[3],around 20 fold
same,difference in in vitro bioaccessibility (factor),[4]; [5],440
same,"Bioelution of Co in gastric fluid (% release), 2 h","[4]; simulated gastric fluid pH 1.5, 2 h, 37°C",98.5 % release
same,"erythroid hyperplasia in the bone marrow, incidence","Crl:CD(SD) rats; 2.48 mg Co/kg bw/day, females",7/10
same,"erythroid hyperplasia in the bone marrow, incidence","Crl:CD(SD) rats; 2.48 mg Co/kg bw/day, males",4/10
same,"erythroid hyperplasia in the bone marrow, incidence","Crl:CD(SD) rats; 7.44 mg Co/kg bw/day, both sexes",7/10
same,premature deaths,"Crl:CD(SD) rats; 90-day oral gavage, all doses",None of the animals treated with any dose of CoCl2 died prematurely
same,LOAEL (systemic),"Crl:CD(SD) rats; 90-day oral gavage, rats",2.5 mg Co/kg bw/day
same,NOAEL (reproductive),"Crl:CD(SD) rats; 90-day oral gavage, rats",> 7.5 mg Co/kg bw/day
same,difference in RDT lowest observed adverse effect level (factor),Crl:CD(SD) rats; [5],310
same,"HGB, %Diff vs control",Crl:CD(SD) rats; [6],+0.9%
same,"HGB, mean",Crl:CD(SD) rats; [6],9.62 mmol/L
same,"RBC, %Diff vs control",Crl:CD(SD) rats; [6],+0.6%
same,"RBC, mean",Crl:CD(SD) rats; [6],8.38 ×10E6/µl
same,"Reti, %Diff vs control",Crl:CD(SD) rats; [6],−18.9%
same,"Reti, mean",Crl:CD(SD) rats; [6],12 %0 of RBC
same,"HGB, %Diff vs control",Crl:CD(SD) rats; [7],+0.3%
same,"HGB, mean",Crl:CD(SD) rats; [7],9.56 mmol/L
same,"RBC, %Diff vs control",Crl:CD(SD) rats; [7],−2.6%
same,"RBC, mean",Crl:CD(SD) rats; [7],8.11 ×10E6/µl
same,"Reti, %Diff vs control",Crl:CD(SD) rats; [7],+33.1%
same,"Reti, mean",Crl:CD(SD) rats; [7],19.7 %0 of RBC
same,body weight at autopsy reduced,"Crl:CD(SD) rats; females, 7.44 mg Co/kg bw/day, 90-day exposure",9%
same,"HGB, %Diff vs control",Crl:CD(SD) rats; [8],+13.4%
same,"HGB, mean",Crl:CD(SD) rats; [8],10.81 mmol/L
same,"RBC, %Diff vs control",Crl:CD(SD) rats; [8],+9.8%
same,"RBC, mean",Crl:CD(SD) rats; [8],9.15 ×10E6/µl
same,"Reti, %Diff vs control",Crl:CD(SD) rats; [8],+4.1%
same,"Reti, mean",Crl:CD(SD) rats; [8],15.4 %0 of RBC
same,"HCT, mean",Crl:CD(SD) rats; [9],• 45.02 • .841%
same,"HGB, mean",Crl:CD(SD) rats; [9],• 9.56 • .936 mmol/l
same,"RBC, mean",Crl:CD(SD) rats; [9],• 8.01 • .948 ×10E6/µl
same,"Reti, mean",Crl:CD(SD) rats; [9],• 15 • .232 %0 of RBC
same,"HCT, mean",Crl:CD(SD) rats; [10],• 52.3 ^** • .0025%
same,"HGB, mean",Crl:CD(SD) rats; [10],• 11.1 ^** • .0017 mmol/l
same,"RBC, mean",Crl:CD(SD) rats; [10],• 9.648 ^* • .030 ×10E6/µl
same,"Reti, mean",Crl:CD(SD) rats; [10],• 15.6 • .933 %0 of RBC
same,body weight reduced at the end of the 4-week recovery period,"Crl:CD(SD) rats; females, 7.44 mg Co/kg bw/day, test day 118",13%
same,dose level from which hematological parameters were significantly affected,"Crl:CD(SD) rats; females, 90-day oral",7.44 mg/kg bw/day
same,changes in hematological parameters compared with control,"Crl:CD(SD) rats; male rats, 90-day exposure at 7.44 mg Co/kg bw/day",up to 30%
same,"HCT, %Diff vs control",Crl:CD(SD) rats; [11],+1.2%
same,"HCT, mean",Crl:CD(SD) rats; [11],50.51%
same,"HGB, %Diff vs control",Crl:CD(SD) rats; [11],+1.4%
same,"HGB, mean",Crl:CD(SD) rats; [11],10.50 mmol/L
same,"PLT, %Diff vs control",Crl:CD(SD) rats; [11],−13.5%
same,"PLT, mean",Crl:CD(SD) rats; [11],793.6 ×10E3/µl
same,"RBC, %Diff vs control",Crl:CD(SD) rats; [11],−1.4%
same,"RBC, mean",Crl:CD(SD) rats; [11],9.33 ×10E6/µl
same,"Reti, %Diff vs control",Crl:CD(SD) rats; [11],+7.8%
same,"Reti, mean",Crl:CD(SD) rats; [11],15.2 %0 of RBC
same,"HCT, %Diff vs control",Crl:CD(SD) rats; [12],+10.3%
same,"HCT, mean",Crl:CD(SD) rats; [12],55.07%
